Patent US20120238487A1, “POLYMER COMPOSITION USEFUL AS A PHARMACEUTICAL CARRIER” (ROBERT GORDON UNIVERSITY, priority 2009, published 2012)
≈ marks a conversion by molar mass, not a printed value. Read-outs that look alike come from different tables or passages of the source. One block for each molecule: values may come before it.

Key:
[1] = type: physicochemical
Description: Polymer solutions of 1 […] 6 mgmL^-1 were made up in deionised water and probe sonicated for 10 mins to ensure homogeneity. […] A reverse phase Phenomenex C18 250 mm×46 mm×5 μm HPLC column was used with flow rate of 1 mlmin^-1 of the mobile phase (45:55 acetonitrile:45 mM potassium dihydrogen phosphate made up in water and pH adjusted to pH3 with orthophosphoric acid) in an isocratic mode.

[2] = type: physicochemical; remark: listed apart in the source
Description: (§1) Polymer solutions of 1 mgmL^−1, 3 mgmL^−1 and 6 mgmL^−1 were made up in deionised water and probe sonicated for 10 mins to ensure homogeneity. The hydrophobic drug was added in 1:1, 5:1 and 10:1 drug:excipient ratios and the drug-polymer solutions were probe sonicated for a further 10 mins to ensure maximum encapsulation was achieved. After cooling to room temperature, the solutions were filtered using 0.45 μm GDX PVDF syringe filters to ensure any excess unencapsulated propofol was removed.
A reverse phase Zorbax ODS 250 mm×46 mm×5 […] HPLC column was used with flow rate of 1 mlmin^−1 of the mobile phase (40:3:57 methanol:acetonitrile:water) in an isocratic mode. […] The samples were diluted with mobile phase and 20 μl was injected onto the column, the resultant peak at 20 mins was analysed. The drug content was determined by comparing to a calibration carried out on etoposide dissolved in methanol (31.3-500 μgmL^−1).

Caco-2 cells = assay: MTT assay on Caco-2 cells; type: cell-based
Description: The cytotoxicity of the modified PAA polymers was determined using the MTT assay model. Caco-2 cells were cultured in minimum essential medium (MEM) containing 10% foetal bovine serum (FBS), 1% L-glutamine and 1% non essential amino acids (NEAA).
A 10 mgmL^−1 polymer solution was prepared using sterile water as the diluent. The solution was further diluted with media to form a 0.5 mgmL^−1 stock solution. From the stock solution nine dilutions (0.2-1×10^−4 mgmL^−1) were made using media as the diluent.
Caco-2 cells (200 μL, 10000 cells/well) in exponential growth phases were seeded into a 96-well flat bottomed plate and incubated for 24 h at 37° C. with 5% CO2. The media was replaced with increasing polymer concentrations (0.5-1×10^−4 mgmL^−1) as prepared above. Media and Triton X (1:5 PBS) were the negative and positive controls respectively. The plate was incubated as before. After 24 h the polymer solutions were removed and replaced with fresh media. […] The remaining purple formazan complexes were dissolved in DMSO (200 μL) and L-glycine buffer (25 mL, made up of 3.75 g glycine and 2.93 g NaCl made up in 500 mL and pH adjusted to pH 10.5) and the absorbance of the plates was read at 570 nm using a microplate reader (Ascend Lab-Systems, UK). Percentage cell viability was calculated relative to the positive and negative controls. […]

[3] = Drug loading capacity: solubilisation of prednisolone (HPLC); type: physicochemical
[4] = type: physicochemical; remark: listed apart in the source
Description: as §1
The BNIPDaoct content in self assemblies was carried out using reverse phase Zorbax ODS 250 mm×46 mm×5 […] HPLC column was used with flow rate of 1 mlmin^−1 of the mobile phase (55:45 buffer:acteonitrile) in an isocratic mode. The buffer was made up of 0.4 g octane sulfonic acid and anhydrous sodium acetate made up to 200 ml with deionised water, the solution was pH adjusted to pH4.5. The column eluent was monitored using a fluorescent Detector. The samples were diluted with mobile phase and 20 μl was injected onto the column, the resultant peak at 10 mins was analysed. A calibration was carried out by dissolving BNIPDaoct in DMSO:water (50:50 v/v) (39-625 μgmL^−1).

[5] = cited from earlier work
HEK 293 cells = assay: MTT assay on HEK 293 cells; type: cell-based, Human; details: for IC50: Homo sapiens
Description: The safety profile of various drugs and nano-aggregates of the drugs and polymers were investigated using the standard colorimetric MTT (3-(4,5-Dimethylthiazol-2-yl)-2,5-diphenyltetrazolium bromide) assay.
An MTT assay was carried out using Caco-2 and HEK cells. Caco-2 cells were cultured as previously described. HEK cells were cultured in Dulbecco's minimum essential medium (DMEM) containing 10% FBS and 1% penicillin streptomycin (Penstrep).
Polymeric self-assemblies were formed by probe sonicating the polymers in sterile water (5 mgmL^−1). The polymer stock solutions were diluted to 0.005 mgmL^−1 with media. Etoposide stock solution (20 mgmL^−1) was prepared by diluting the drug in DMSO. The formulations were prepared by addition of drug into 0.005 mgmL^−1 polymer solution.

[6] = type: physicochemical; remark: listed apart in the source
Description: Polymer solutions of 1 […] 6 mgmL^-1 were made up in deionised water and probe sonicated for 10 mins to ensure homogeneity. […] The drug loading capacity of the self assemblies was determined using high performance liquid chromatography (HPLC). […] The samples were diluted with mobile phase and 20 μl was injected onto the column, the resultant peak at 7 mins was analysed.

[7] = Aqueous solubility of model hydrophobic drugs; type: physicochemical

Molecule: CC(C)c1cccc(C(C)C)c1O [Propofol, 2,6-diisopropylphenol]
aqueous solubility ([5]; 25° C.): 100 µg/mL (≈ 561 µM)
aqueous solubility ([5]; value used for fold increase): 0.1 mgmL^−1

Molecule: COC1=CC(=O)C[C@@H](C)[C@]12Oc1c(Cl)c(OC)cc(OC)c1C2=O [Griseofulvin, (2S)-trans-7-chloro-2′,4,6-trimethoxy 6′-methylspiro(benzofuran-2[3H],1′-[2]cyclohexene)3,4′-dione]
aqueous solubility ([5]; 25° C.): 30 µg/mL (≈ 85 µM)
aqueous solubility ([5]; value used for fold increase): 0.03 mgmL^−1

Molecule: COc1cc([C@@H]2c3cc4c(cc3[C@@H](O[C@@H]3O[C@@H]5CO[C@@H](C)O[C@H]5[C@H](O)[C@H]3O)[C@H]3COC(=O)[C@H]23)OCO4)cc(OC)c1O [Etoposide]
IC50 (HEK 293 cells; HEK293, read-out: IC50 (n = 3 ± SD), HEK 293 cells, IC50 of the polymer was used in the formulations): 2.48 µg/mL (≈ 4.21 µM)
IC50 (HEK 293 cells; HEK293, IC90 of the polymer used in the formulations (5 μgmL^−1), read-out: IC50 on HEK 293 cells): 2.5 µg/mL (≈ 4.25 µM)
IC50 (Caco-2 cells; Homo sapiens, Caco-2, read-out: IC50 on Caco-2 cells): 190 µg/mL (≈ 323 µM)
aqueous solubility ([5]; 37° C.): 148 to 153 µg/mL
aqueous solubility ([5]; value used for fold increase): 0.15 mgmL^−1

Molecule: O=C1c2cccc3cccc(c23)C(=O)N1CCCNCCCCCCCCNCCCN1C(=O)c2cccc3cccc(c23)C1=O [BNIPDaoct, Bisnahthalimidopropyldiaminooctane]
IC50 (n = 3 ± SD) (HEK 293 cells; HEK 293 cells, IC50 of the polymer was used in the formulations): 0.00496 (0.00005) mgmL^−1
aqueous solubility (in words) [7]: negligible

More lines, main results first:

Increase from aqueous solubility [1]: 557 Fold
Concentration of Etoposide solubilised [2]: 1.890 (0.011) mgmL^−1
Molecule: 5-Dimethylamino-1-naphthalenesulfonyl-PAA [Dansyl10]

maximum concentration of prednisolone solubilised [3]: 7.05 mgmL^−1
Concentration of Griseofulvin solubilised [1]: 1.2 mgmL^−1
Excipient:Drug Ratio after solubilisation [1]: 5.00
Increase from aqueous solubility [1]: 40 Fold
Concentration of Etoposide solubilised [2]: 1.020 (0.040) mgmL^−1
Excipient:Drug Ratio after solubilisation [2]: 5.88
Increase from aqueous solubility [2]: 7 Fold
Concentration of BNIPDaoct solubilised [4]: 0.3 mgmL^−1
Excipient:Drug Ratio after solubilisation [4]: 3.33
Molecule: Cholesterol-PAA [Ch5]
Number of fold more cytotoxic compared to IC50 of PAA (Caco-2 cells): −1.61

maximum concentration of propofol solubilised [6]: 22.4 mgmL^−1
Molecule: 5-Dimethylamino-1-naphthalenesulfonyl-PAA [Dansyl5]
